Reference: patent US11116735B2, “Use of substituted benzylideneguanidine derivatives as synergists for polymyxin antibiotics” (GUANGZHOU INSIGHTER BIOTECHNOLOGY CO., LTD., priority 2015, dated 2021)

Key:
[1] = system: E. coli 3Y-9; experiment: MIC by doubling dilution, colistin sulfate-susceptible E. coli 3Y-9; format: cell-based, Escherichia coli; details: for In vitro minimum inhibitory concentration (MIC) of the substance alone: E. coli 3Y-9, colistin sulfate-susceptible, derivatives as hydrochlorides; for In vitro MIC of colistin sulfate in the presence of the substituted benzylideneguanidine derivative: E. coli 3Y-9, culture comprised 20.0 ppm of the derivative (hydrochloride), colistin sulfate serially diluted
[2] = system: E. coli 2S-19; experiment: MIC by doubling dilution, colistin sulfate-susceptible E. coli 2S-19; format: cell-based, Escherichia coli; details: for In vitro minimum inhibitory concentration (MIC) of the substance alone: E. coli 2S-19, colistin sulfate-susceptible, derivatives as hydrochlorides; for In vitro MIC of colistin sulfate in the presence of the substituted benzylideneguanidine derivative: E. coli 2S-19, culture comprised 20.0 ppm of the derivative (hydrochloride), colistin sulfate serially diluted
[3] = system: E. coli 5W-7; experiment: MIC by doubling dilution, colistin sulfate-susceptible E. coli 5W-7; format: cell-based, Escherichia coli; details: for In vitro minimum inhibitory concentration (MIC) of the substance alone: E. coli 5W-7, colistin sulfate-susceptible, derivatives as hydrochlorides; for In vitro MIC of colistin sulfate in the presence of the substituted benzylideneguanidine derivative: E. coli 5W-7, culture comprised 20.0 ppm of the derivative (hydrochloride), colistin sulfate serially diluted
[4] = system: E. coli 3B-24; experiment: MIC by doubling dilution, colistin sulfate-susceptible E. coli 3B-24; format: cell-based, Escherichia coli; details: for In vitro minimum inhibitory concentration (MIC) of the substance alone: E. coli 3B-24, colistin sulfate-susceptible, derivatives as hydrochlorides; for In vitro MIC of colistin sulfate in the presence of the substituted benzylideneguanidine derivative: E. coli 3B-24, culture comprised 20.0 ppm of the derivative (hydrochloride), colistin sulfate serially diluted
[5] = system: E. coli 2G-7; experiment: MIC by doubling dilution, colistin sulfate-resistant E. coli 2G-7; details: for In vitro minimum inhibitory concentration (MIC) of the substance alone: E. coli 2G-7, colistin sulfate-resistant, derivatives as hydrochlorides; for In vitro MIC of colistin sulfate in the presence of the substituted benzylideneguanidine derivative: E. coli 2G-7, resistant, culture comprised 20.0 ppm of the derivative (hydrochloride)
Protocol: (§1) In vitro minimum inhibitory concentrations of colistin sulfate against the strains where the cultures respectively comprised 20.0 ppm of the substituted benzylideneguanidine derivatives were also measured.

[6] = system: E. coli 5F-1; experiment: MIC by doubling dilution, colistin sulfate-resistant E. coli 5F-1; details: for In vitro minimum inhibitory concentration (MIC) of the substance alone: E. coli 5F-1, colistin sulfate-resistant, derivatives as hydrochlorides; for In vitro MIC of colistin sulfate in the presence of the substituted benzylideneguanidine derivative: E. coli 5F-1, resistant, culture comprised 20.0 ppm of the derivative (hydrochloride)
Protocol: as §1

[7] = system: E. coli 4D-6; experiment: MIC by doubling dilution, colistin sulfate-resistant E. coli 4D-6; details: for In vitro minimum inhibitory concentration (MIC) of the substance alone: E. coli 4D-6, colistin sulfate-resistant, derivatives as hydrochlorides; for In vitro MIC of colistin sulfate in the presence of the substituted benzylideneguanidine derivative: E. coli 4D-6, resistant, culture comprised 20.0 ppm of the derivative (hydrochloride)
Protocol: as §1

[8] = system: E. coli 3H-4; experiment: MIC by doubling dilution, colistin sulfate-resistant E. coli 3H-4; details: for In vitro minimum inhibitory concentration (MIC) of the substance alone: E. coli 3H-4, colistin sulfate-resistant, derivatives as hydrochlorides; for In vitro MIC of colistin sulfate in the presence of the substituted benzylideneguanidine derivative: E. coli 3H-4, resistant, culture comprised 20.0 ppm of the derivative (hydrochloride)
Protocol: as §1

Compound	In vitro minimum inhibitory concentration (MIC) of the substance alone [1] [ppm]	In vitro MIC of colistin sulfate in the presence of the substituted benzylideneguanidine derivative [1] [ppm]	In vitro minimum inhibitory concentration (MIC) of the substance alone [2] [ppm]	In vitro MIC of colistin sulfate in the presence of the substituted benzylideneguanidine derivative [2] [ppm]	In vitro minimum inhibitory concentration (MIC) of the substance alone [3] [ppm]	In vitro MIC of colistin sulfate in the presence of the substituted benzylideneguanidine derivative [3] [ppm]	In vitro minimum inhibitory concentration (MIC) of the substance alone [4] [ppm]	In vitro MIC of colistin sulfate in the presence of the substituted benzylideneguanidine derivative [4] [ppm]	In vitro minimum inhibitory concentration (MIC) of the substance alone [5] [ppm]	In vitro MIC of colistin sulfate in the presence of the substituted benzylideneguanidine derivative [5] [ppm]	In vitro minimum inhibitory concentration (MIC) of the substance alone [6] [ppm]	In vitro MIC of colistin sulfate in the presence of the substituted benzylideneguanidine derivative [6] [ppm]	In vitro minimum inhibitory concentration (MIC) of the substance alone [7] [ppm]	In vitro MIC of colistin sulfate in the presence of the substituted benzylideneguanidine derivative [7] [ppm]	In vitro minimum inhibitory concentration (MIC) of the substance alone [8] [ppm]	In vitro MIC of colistin sulfate in the presence of the substituted benzylideneguanidine derivative [8] [ppm]
CCOc1ccc(C=NN=C(N)NN=Cc2ccc(OCC)cc2)cc1 [Compound 2]	>800	2.00	>800	2.00	>800	1.00	>800	2.00	>800	2.0	>800	4.0	>800	8.0	>800	2.0
CCSc1ccc(C=NNC(=N)NN=Cc2ccc(SCC)cc2)cc1 [Compound 9]	>800	1.00	>800	1.00	>800	0.50	>800	1.00	>800	4	>800	8	>800	16	>800	4
Cc1ccc(C=NN=C(N)NN=Cc2ccc(C)cc2)cc1 [Compound 10]	>800	1.00	>800	1.00	>800	0.50	>800	1.00	>800	4	>800	8	>800	16	>800	4
